# Measured values from ChEMBL document CHEMBL1154267, “Imidazo[1,5-a][1,2,4]-triazolo[1,5-d][1,4]benzodiazepines as potent and highly selective GABAA alpha5 inverse agonists with potential for the treatment of cognitive dysfunction” (Bioorg Med Chem Lett, 2009).
# Active and inactive are the calls of the source. No cut-off for these calls is given here.
# Tests used:
# [1] = Selectivity ratio of Ki for GABAA alpha-2-beta-3-gamma-2 receptor to Ki for GABAA alpha-5-beta-3-gamma-2 receptor
# Liver microsomes = experiment: Clearance in rat liver microsomes; assay type: ADME, Microsome
# [2] = Permeability by PAMPA; assay type: ADME; details: read-out: permeability
# [3] = Solubility of the compound; assay type: physicochemical
# [4] = Lipophilicity, log D at pH 7.4; assay type: physicochemical; details: buffer
# [5] = Oral bioavailability in rat; assay type: ADME, organism-based; details: in vivo
# [6] = Ratio of drug level in brain to plasma in rat; assay type: ADME, organism-based; details: brain and plasma
# [7] = molecular target: GABA-A receptor; alpha-5/beta-3/gamma-2 (Homo sapiens) (UniProt P18507+P28472+P31644); experiment: Inverse agonist activity at GABAA alpha-5-beta-3-gamma-2 receptor assessed as modulation of GABA-induced chloride ion flux by electrophysiology assay relative to GABA; assay type: functional
# [8] = molecular target: T1, GABA-A receptor; alpha-5/beta-3/gamma-2 (Homo sapiens, UniProt P18507+P28472+P31644); experiment: Displacement of [3H]flumazenil from GABAA alpha-5-beta-3-gamma-2 receptor; assay type: protein-complex assay
# T1 sequence (P18507 whole entry): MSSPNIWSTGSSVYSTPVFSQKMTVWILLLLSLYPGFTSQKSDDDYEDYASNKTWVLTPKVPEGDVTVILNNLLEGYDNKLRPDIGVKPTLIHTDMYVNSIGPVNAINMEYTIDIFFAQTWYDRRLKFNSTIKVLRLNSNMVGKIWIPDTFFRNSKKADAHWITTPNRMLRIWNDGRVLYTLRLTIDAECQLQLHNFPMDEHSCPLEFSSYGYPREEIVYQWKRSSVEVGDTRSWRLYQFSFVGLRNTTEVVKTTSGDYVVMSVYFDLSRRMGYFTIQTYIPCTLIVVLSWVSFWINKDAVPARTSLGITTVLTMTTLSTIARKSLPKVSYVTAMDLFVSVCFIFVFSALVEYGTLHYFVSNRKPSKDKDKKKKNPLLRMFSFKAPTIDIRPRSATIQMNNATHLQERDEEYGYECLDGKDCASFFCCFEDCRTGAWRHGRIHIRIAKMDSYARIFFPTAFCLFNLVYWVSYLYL
# T1 sequence (P28472 whole entry): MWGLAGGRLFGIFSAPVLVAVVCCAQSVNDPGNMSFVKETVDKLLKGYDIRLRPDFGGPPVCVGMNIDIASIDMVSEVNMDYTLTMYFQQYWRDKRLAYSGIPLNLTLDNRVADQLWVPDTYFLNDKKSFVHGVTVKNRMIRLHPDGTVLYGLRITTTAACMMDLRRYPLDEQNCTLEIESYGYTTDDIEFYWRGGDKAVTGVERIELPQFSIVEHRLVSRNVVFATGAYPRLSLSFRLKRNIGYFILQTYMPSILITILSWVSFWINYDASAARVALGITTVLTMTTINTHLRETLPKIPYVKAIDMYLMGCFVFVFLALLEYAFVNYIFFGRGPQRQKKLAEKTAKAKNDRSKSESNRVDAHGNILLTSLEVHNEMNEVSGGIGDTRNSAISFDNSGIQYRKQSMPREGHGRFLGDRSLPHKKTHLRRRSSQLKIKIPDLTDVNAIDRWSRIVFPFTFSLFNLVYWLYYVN
# T1 sequence (P31644 whole entry): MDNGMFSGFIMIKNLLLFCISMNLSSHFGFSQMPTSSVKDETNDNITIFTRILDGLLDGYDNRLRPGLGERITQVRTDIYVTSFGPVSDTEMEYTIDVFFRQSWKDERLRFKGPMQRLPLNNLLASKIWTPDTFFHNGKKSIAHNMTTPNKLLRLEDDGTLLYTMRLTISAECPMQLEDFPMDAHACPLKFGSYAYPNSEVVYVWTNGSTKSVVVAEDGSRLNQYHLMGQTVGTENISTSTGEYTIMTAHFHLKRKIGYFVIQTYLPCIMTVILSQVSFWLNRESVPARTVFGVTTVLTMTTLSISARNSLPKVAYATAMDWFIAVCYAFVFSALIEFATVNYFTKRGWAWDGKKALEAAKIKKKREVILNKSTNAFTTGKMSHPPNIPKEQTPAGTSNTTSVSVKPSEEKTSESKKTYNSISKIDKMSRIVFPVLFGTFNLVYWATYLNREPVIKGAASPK
# [9] = Selectivity ratio of Ki for GABAA alpha-1-beta-3-gamma-2 receptor to Ki for GABAA alpha-5-beta-3-gamma-2 receptor
# [10] = Volume of distribution at steady state in rat; assay type: ADME, organism-based; details: in vivo, read-out: Vdss
# Rattus norvegicus [11] = species: Rattus norvegicus; experiment: Toxicity in Lister hooded rat assessed as behavioral impairment; assay type: organism-based; details: in vivo
# [12] = Selectivity ratio of Ki for GABAA alpha-3-beta-3-gamma-2 receptor to Ki for GABAA alpha-5-beta-3-gamma-2 receptor
# [13] = Clearance in rat; assay type: ADME, organism-based; details: in vivo
# [14] = Half life in rat; assay type: ADME, organism-based; details: in vivo
# Rattus norvegicus [15] = experiment: Behavioral effect in Lister hooded rat assessed as reversal of Scopolamine-induced impairment of working memory at 1 mg/kg, po administered 30 mins before Scopolamine challenge by delayed match to position test; assay type: functional, organism-based; set-up: dose 1 mg/kg
compound,measurement,setting,value
Cc1cc(Cc2nc3n(n2)Cc2c(C)ncn2-c2ccc(Cl)cc2-3)on1,Ratio Ki,[1],251
same,CL,Liver microsomes,6000 µL/min/mg
same,Papp,[2],3.1 ×10⁻⁶ cm/s
same,solubility,[3],14 µg/mL
same,logD,[4],2.3
same,bioavailability,[5],44%
same,Kp,[6],1
same,Efficacy,[7],-18%
same,Ki,[8],600 pM
same,Ratio Ki,[9],466
same,Vd,[10],1.8 L/kg
same,Activity,Rattus norvegicus [11],Non-toxic
same,Ratio Ki,[12],223
same,clearance,[13],9.5 mL/min/kg
same,half-life,[14],1.4 h
same,Activity,Rattus norvegicus [15],Active
